Test results published in US7223795B2, “Modified peptide derivatives and methods of use thereof” (Cyclacel Limited, priority 2000, dated 2007).
Like-named read-outs stand apart in the source and are kept apart here.

Assays:
Cyp-A = Cyp-A (Homo sapiens, UniProt P62937); assay: PPIase activity, α-chymotrypsin-coupled enzymatic assay; type: biochemical; details: 4° C., read-out: Kd determined by PPIase assay
Method: (§1) PPIase activity is assessed with the α-chymotrypsin-coupled enzymatic assay [Determination of kinetic constants for peptidyl cis-trans isomerase by an improved spectrophotometric assay (1 991); Kofron J L, Kuzmic P, Kishore V, Colon-Bonilla E and Rich D., Biochemistry 30, 6127–6134]. α-Chymotrypsin selectively hydrolyses the C-terminal p-nitroanilide bond of the substrate in the trans X-Pro conformer only. This hydrolysis releases a chromophore 4-nitroaniline, the accumulation of which is recorded by measuring the absorbance at 400 nm as a function of time. […] Substrate (stock solution of 100 mM) was dissolved in LiCl/TFE. The experiment took place at 4° C. Constant temperature was maintained within the cuvette by a Peltier (PTP-1) temperature control unit. A mini magnetic stirring system (telemoduel from Variomag)) was used for mixing the solution in the cuvette after the addition of the substrate. A Perkin Elmer UV/VIS Lambda 20 spectrophotometer was used.
The following materials were used: • Substrate: […] (Bachem AG) (N-succinyl-Ala-Ala-Pro-Phe-pnitroanilide) • Proteins: Cyp-A solution was freshly prepared before the experiment from frozen stock solution, at the appropriate concentration by dilution in buffer 50 mM Hepes, 100 mM NaCl pH=8.0. α-chymotrypsin (Sigma)
In a typical experiment 90 μl of 2.5–30 nM cyclophilin was made up to 2520 μl with buffer A in a 3 ml glass cuvette. The cuvette then was preincubated for 30 min on ice. Immediately before the assay, 300 μl of chymotrypsin solution (50 mg/ml in 10 mM HCl) was added, followed by 90 μl of a 3.7 mM stock solution of Suc-Ala-Ala-Pro-PNA in LiCl (470 mM)/TFE. The reaction progress was monitored by the absorbance change at 400 nm that accompanies the hydrolysis of the amide bond and the release of 4-nitroaniline product.

Cyp-D Wild-type = Cyp-D Wild-type (Homo sapiens, UniProt P30405); assay: Fluorescence titration: interaction with Cyclophilin D; type: binding
Sequence of Cyp-D Wild-type (P30405 30-207): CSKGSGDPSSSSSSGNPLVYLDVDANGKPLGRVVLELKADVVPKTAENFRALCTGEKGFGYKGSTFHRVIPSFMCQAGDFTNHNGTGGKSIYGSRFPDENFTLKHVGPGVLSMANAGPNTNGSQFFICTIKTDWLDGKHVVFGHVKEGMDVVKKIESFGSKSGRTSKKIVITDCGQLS
Method: Fluorescence Assay: Interaction with Cyclophilin D
Further fluorescence titration studies were undertaken to investigate the interaction of selected compounds of the invention with cyclophilin D. The assay was carried out in accordance with the method described in Maurice R. Eftink and Camillo A. Ghiron, [Fluorescence Quenching Studies with Proteins, Analytical Biochemistry 114, 199–227 (1981)].

cyclophilin D = cyclophilin D (Homo sapiens, UniProt P30405); assay: Rotamase activity (method of Kofron et al); type: biochemical
Sequence of cyclophilin D (P30405 30-207): as above
Method: as §1, with “used. […]” for “used.”

cyclophilin = cyclophilin (Homo sapiens, UniProt P62937); assay: Binding studies, binding constant to cyclophilin
Sequence of cyclophilin (P62937 whole entry): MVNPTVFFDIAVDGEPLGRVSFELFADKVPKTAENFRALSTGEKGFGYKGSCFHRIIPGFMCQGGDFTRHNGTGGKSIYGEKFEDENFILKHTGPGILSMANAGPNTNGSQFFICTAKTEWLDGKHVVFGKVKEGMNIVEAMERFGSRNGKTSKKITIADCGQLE

Cyclophilin A = Cyclophilin A (Homo sapiens, UniProt P62937); assay: Fluorescence assay: interaction with Cyclophilin A (dissociation constant); type: binding; details: 20° C., read-out: Kd determined by fluorescence assay
Sequence of Cyclophilin A (P62937 whole entry): as above
Method: In each case, the binding constant was measured by means of a fluorescence assay, for example as disclosed by Husi, H. and Zurini, M. G. M. [Comparative binding studies of cyclophilins to cyclosporin-A and derivatives by fluorescence measurements, Analytical Biochemistry, 1994, 222, 251–255].
Fluorescence Assay: Interaction with Cyclophilin A
The dissociation constant (Kd) for a number of ligands has been was obtained by fluorescence measurements. Cyclophilin A has only one tryptophan, located about 8 Å from the centre of the active site making a hydrogen bond to the inhibitor cyclosporin when bound. After each addition of ligand, the portion of the protein bound is proportional to the fractional fluorescence change. Measurements were carried out using a Perkin Elmer LS50B fluorescence spectrophotometer. The experiments took place at 20° C. Constant temperature was maintained within the cuvette by a temperature control. The protein solution was equilibrated until the signal was stable. A 1.4 ml fluorescence cuvette was used (Hellma 6140F). The excitation wavelength was 280 nm and the emission wavelength was varied from 330 to 345 nm according to protein and ligand. Emission and excitation slits varied from 2.5 to 10 nm, determined by experimental parameters.
At this point the concentration of the bound ligand equals the free protein. For each ligand concentration one fluorescence value was measured, and at the same concentrations a reference emission value was taken. The difference between the two values was calculated and a new corrected value was used to determine the Kd graphically.
Cyp-A solutions of […] in 50 mMTris, 100 mM NaCl, pH=7.4 were used. Protein concentration varied according to the ligand under test.

Sequence of Cyp-A (P62937 whole entry): as above

## CC1C(=O)CC(=O)CC1(C)C (racemic) [EM 4/33/1]
Cyp-A
  Kd: 134 µM

## CC(C)[C@H](NC(=O)OCc1ccccc1)C(=O)OC1=CC(=O)CC(C)(C)C1 [EM 2/34, 3-(N-benzyloxycarbonyl-L-valinyloxy)-5,5-dimethyl-2-cyclohexen-1-one]
Cyp-A
  Kd: 23 µM
Cyp-D Wild-type
  Kd: 347 µM
Cyclophilin D; 50 μM
  Rotamase activity % Control: 81 % Control
Cyclophilin D; 100 μM
  Rotamase activity % Control: 80 % Control
Cyclophilin D; 200 μM
  Rotamase activity % Control: 33 % Control
cyclophilin
  Kd: ~1 µM

## COC(=O)[C@H](Cc1ccccc1)NC(=C1C(=O)CC(C)(C)CC1=O)C(NC(=O)OCc1ccccc1)C(C)C (stereo partly drawn) [EM 2/40, N-[1-(4,4-dimethyl-2,6-dioxocyclohexylidene)-2-benzyloxycarbonylamino-3-methylbutyl]phenylalanine methyl ester]
Cyclophilin A
  Kd: > 25000 µM
Cyp-D Wild-type
  Kd: 110 µM
Cyclophilin D; 50 μM
  Rotamase activity % Control: 96 % Control
Cyclophilin D; 100 μM
  Rotamase activity % Control: 100 % Control
Cyclophilin D; 200 μM
  Rotamase activity % Control: 59 % Control

## CC(C)C(NC(=O)OCc1ccccc1)C(O)=C1C(=O)CC(C)(C)CC1=O (stereo not drawn) [EM 3/11/1, 1-(4,4-dimethyl-2,6-dioxocyclohexylidene)-2-benzyloxycarbonylamino-3-methylbutanol]
Cyclophilin A
  Kd: > 25000 µM
Cyp-D Wild-type
  Kd: 203 µM
Cyclophilin D; 50 μM
  Rotamase activity % Control: 109 % Control
Cyclophilin D; 100 μM
  Rotamase activity % Control: 102.5 % Control
Cyclophilin D; 200 μM
  Rotamase activity % Control: 61 % Control

## COC(=O)[C@@H](NC1=CC(=O)CC(C)(C)C1)C(C)C [EM 3/22/1]
Cyclophilin A
  Kd: > 25000 µM
Cyp-D Wild-type
  Kd: 103 µM
Cyclophilin D; 50 μM
  Rotamase activity % Control: 110 % Control
Cyclophilin D; 100 μM
  Rotamase activity % Control: 102 % Control
Cyclophilin D; 200 μM
  Rotamase activity % Control: 63 % Control

## CC1(C)CC(=O)C=C(OC(=O)[C@H](Cc2ccccc2)NC(=O)OCc2ccccc2)C1 [EM 3/26/1/2]
Cyclophilin A
  Kd: > 25000 µM
Cyp-D Wild-type
  Kd: 154 µM
Cyclophilin D; 50 μM
  Rotamase activity % Control: 83 % Control
Cyclophilin D; 100 μM
  Rotamase activity % Control: 72.5 % Control
Cyclophilin D; 200 μM
  Rotamase activity % Control: 33 % Control

## CC(C)C[C@H](NC(=O)OCc1ccccc1)C(=O)OC1=CC(=O)CC(C)(C)C1 [EM 3/26/2/5, 3-(N-benzyloxycarbonyl-L-leucinyloxy)-5,5-dimethyl-2-cyclohexen-1-one]
Cyp-D Wild-type
  Kd: 116 µM
Cyclophilin D; 50 μM
  Rotamase activity % Control: 79 % Control
Cyclophilin D; 100 μM
  Rotamase activity % Control: 78 % Control
Cyclophilin D; 200 μM
  Rotamase activity % Control: 52 % Control

## COC(=O)[C@@H](NC(=O)OCc1ccccc1)C(C)C [EM 3/27]
Cyclophilin D; 50 μM
  Rotamase activity % Control: 111 % Control
Cyclophilin D; 100 μM
  Rotamase activity % Control: 96 % Control
Cyclophilin D; 200 μM
  Rotamase activity % Control: 60 % Control

## CC(C)[C@H](NC(=O)OC(C)(C)C)C(=O)OC1=CC(=O)CC(C)(C)C1 [EM 3/29/1/1]
Cyp-D Wild-type
  Kd: 362 µM
Cyclophilin D; 50 μM
  Rotamase activity % Control: 107 % Control
Cyclophilin D; 100 μM
  Rotamase activity % Control: 77.5 % Control
Cyclophilin D; 200 μM
  Rotamase activity % Control: 50 % Control

## CC(C)COC(=O)OC1=CC(=O)CC(C)(C)C1 [EM 3/48/2/1]
Cyclophilin A
  Kd: 130 µM

## CC(C)[C@H](NC(=O)OCc1ccccc1)C(=O)OC1=CC(=O)C(C)C(C)(C)C1 (stereo partly drawn) [EM 4/10/1]
Cyp-A
  Kd: 20 µM
Cyp-D Wild-type
  Kd: 815 µM
Cyclophilin D; 50 μM
  Rotamase activity % Control: 78 % Control
Cyclophilin D; 100 μM
  Rotamase activity % Control: 84.5 % Control
Cyclophilin D; 200 μM
  Rotamase activity % Control: 60 % Control

## CC1(C)CC(=O)C=C(N)C1 [EM 4/12/2]
Cyp-D Wild-type
  Kd: 107 µM
Cyclophilin D; 50 μM
  Rotamase activity % Control: 104 % Control
Cyclophilin D; 100 μM
  Rotamase activity % Control: 106.5 % Control
Cyclophilin D; 200 μM
  Rotamase activity % Control: 98 % Control

## COC(=O)N[C@H](C(=O)OC1=CC(=O)CC(C)(C)C1)C(C)C [EM 4/18/1]
Cyclophilin A
  Kd: 70 µM

## CC(C)[C@H](NC(=O)OCc1ccccc1)C(=O)OC1=CC(=O)C(C)(C)C(C)(C)C1 [EM 4/21/1]
Cyclophilin A
  Kd: 68 µM

## COC(=O)CC1C(=O)CC(=O)CC1(C)C (stereo not drawn) [EM 4/35/1/1]
Cyclophilin A
  Kd: 45 µM

## CC1(C)CC(=O)CC(=O)C1Cc1ccccc1 (stereo not drawn) [EM 5/11]
Cyp-D Wild-type
  Kd: 170 µM
Cyclophilin D; 50 μM
  Rotamase activity % Control: 84 % Control
Cyclophilin D; 100 μM
  Rotamase activity % Control: 99 % Control
Cyclophilin D; 200 μM
  Rotamase activity % Control: 71 % Control

## CC1(C)CC(=O)CC(=O)C1C/C=C/c1ccccc1 (stereo not drawn) [EM 5/12/3]
Cyclophilin A
  Kd: 85 µM

## CC1(C)CC(=O)CC(=O)C1 [dimedone, reference compound]
cyclophilin; read-out: binding constant (Kd) to cyclophilin, by way of comparison
  Kd: 22000 µM
